Test results taken from patent publication US8592466B2, “Methods for treating conditions caused by higher-than-normal dopaminergic activity in basal ganglia” (Neuropill, Inc., priority 2008, dated 2013).
Converted amounts (≈) assume the structure as drawn.

Experiments:
[1] = NIH study: treatment of cocaine abuse; settings: humans
serum prolactin = assay: Serum prolactin radioimmunoassay; assay type: in vivo, humans
Description: Blood for prolactin level determinations were collected on day 0 at 6:00 A.M. before breakfast (7:00 A.M.) and also three times a day on days 15, 22 and 29 with first blood draw performed at 6:00 A.M. before the morning dose of RPR 102681 (6:05 A.M.) and the other two at 30 minutes after each i.v. infusion. Prolactin levels on days 15, 22, and 29 were compared between RPR 102681 and placebo cohorts to determine the extent to which prolactin levels are modified by the administration of RPR 102681 using repeated measures ANOVA. Changes in prolactin level induced by 40 mg cocaine infusion along with RPR 102681 (days 15, 22 and 29) were compared for each subject by RPR 102681 dose level using repeated measures ANOVA.
Prolactin concentrations were determined using a commercially available radioimmunoassay (Coat-A-Count® Prolactin IRMA, Diagnostic Products Corporation, Los Angeles, Calif.). Calibrator and QCs (CONE, lots #019 and 020) were also supplied by the manufacturer. Fifty microliters of calibrators, QCs and study samples were added to prolactin polyclonal antibody-coated tubes. This was followed by 200 μL of ^125I-labeled prolactin monoclonal antibodies, followed by shaking for 2 hours. The tubes were decanted and drained; 2 mLs of buffered wash solution was added for 1-2 minutes; the tubes were again decanted and drained; this was followed by a second wash step. After thorough draining, the radioactivity in the tubes was determined from 1 minute counts using a Packard Cobra II gamma counter (Downers Grove, Ill.). In theory, the ^125I-labeled prolactin monoclonal antibodies bind only to prolactin bound to the antibody coated onto the tubes. The radioactivity retained in the tube increases as does the amount of prolactin in the samples. The software for the gamma counter generates a standard curve based on the log of the concentration and the log of the B/Bo for the calibrators. This curve is used to back-calculate the concentration of prolactin in the samples. […]

CCK-B receptor = molecular target: T1, CCK-B receptor (Homo sapiens, UniProt P32239); assay: CCK-B receptor antagonism (statement)
T1 sequence (P32239 1-447): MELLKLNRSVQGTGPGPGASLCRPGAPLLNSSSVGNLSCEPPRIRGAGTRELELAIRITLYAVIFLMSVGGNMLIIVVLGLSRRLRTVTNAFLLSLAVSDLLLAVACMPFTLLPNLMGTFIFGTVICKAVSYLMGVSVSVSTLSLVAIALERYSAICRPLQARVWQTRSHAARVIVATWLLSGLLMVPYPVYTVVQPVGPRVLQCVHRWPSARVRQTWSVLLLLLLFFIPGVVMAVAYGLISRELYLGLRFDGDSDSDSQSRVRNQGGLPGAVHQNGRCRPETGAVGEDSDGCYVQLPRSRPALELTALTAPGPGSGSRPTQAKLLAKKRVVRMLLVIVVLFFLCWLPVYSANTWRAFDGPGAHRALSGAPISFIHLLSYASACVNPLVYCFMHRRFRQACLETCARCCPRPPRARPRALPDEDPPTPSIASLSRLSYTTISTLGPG

[2] = Solubility in organic solvents and aqueous media; assay type: physicochemical

In the case of `CC(C(=O)O)c1cccc(NC(=O)NCC(=O)N2C(C(=O)OC(C)(C)C)CSC2c2ccccc2F)c1` [RPR 102681, (2S)-2-{3-[3-({[(2R,4R)-4-tert-Butoxycarbonyl-2-(2-fluorophenyl)]-3-thiazolidinyl}carbonylmethyl)ureido]phenyl}propionic acid], the “efficacy in treating cocaine abuse” value [1] is reported as “ineffective”, the “post-cocaine prolactin value vs post-saline value” (serum prolactin; RPR 102681 group, day 29) is reported as “significantly lower” and the “serum prolactin levels, RPR 102681 vs placebo subjects” value (serum prolactin; day 0 and pre-infusion days 15, 22, 29) is reported as “no significant differences”. The “serum prolactin response to cocaine or saline infusion, RPR 102681 vs placebo” value (serum prolactin; infusion days 15, 22, 29) was “no significant difference”, the CCK-B receptor antagonism (CCK-B receptor) was “potent CCK-B receptor antagonist” and the solubility ([2]; acetone, organic solvent or mixture) was 250 mg/mL (≈ 470 mM). The solubility ([2]; aqueous media, aqueous buffer, pH less than 6) was < 1 mg/mL, the solubility ([2]; diethyl ether, organic solvent or mixture) was 100 mg/mL (≈ 188 mM) and the solubility ([2]; dimethylformamide, organic solvent or mixture, dimenthylformamide) was 1000 mg/mL (≈ 1880 mM). The solubility ([2]; ethanol, organic solvent or mixture) was 1000 mg/mL (≈ 1880 mM), the solubility ([2]; ethyl acetate, organic solvent or mixture) was 400 mg/mL (≈ 752 mM) and the solubility ([2]; methylene chloride, organic solvent or mixture) was 500 mg/mL (≈ 941 mM). The solubility ([2]; sodium phosphate, pH 7.4, aqueous buffer) was 20 mg/mL (≈ 37.6 mM), the solubility ([2]; toluene, organic solvent or mixture) was 100 mg/mL (≈ 188 mM) and the solubility ([2]; water) was 0.1 mg/mL (≈ 0.188 mM).
